Reference: patent publication US20120276098A1, “DRUG FUSIONS AND CONJUGATES WITH EXTENDED HALF LIFE” (priority 2009, published 2012)
Read-outs that look alike come from different tables or passages of the source. Marks after values point to notes of the source that are not given here.

Experiments:
db/db C57BL/6J mice = test: Chronic diabetes efficacy study in db/db mice, peptide-AlbudAbs alone and combined; type: in vivo, mouse; settings: for decrease in glycosylated HbAlc: baseline vs day 16; for plasma insulin levels: day 16
Method: Male db/db C57BL/6J mice (Jackson Labs, Bar Harbor, Me.) were used for all experiments. The db/db mice (B6.Cg-m +/+ Leprdb/J) and controls were group-housed by the vendor. The db/db mice (10-12 weeks of age), and age-matched controls were shipped to GSK where they were single-housed and maintained at constant temperature (approximately 22° C.) with 12 hr light/dark cycle (lights on from 5:00 AM to 5:00 PM). Mice were given ad libitum access to food (LabDiet 5K67, 16% fat for db/db and their controls) and water. All animal protocols were approved by the institutional animal care and use committee at GlaxoSmithKline in Research Triangle Park, N.C. The peptide-AlbudAbs were prepared fresh daily. The correct dosing concentration of the drug was obtained by diluting the master stock using a citrate vehicle buffer comprised of 100 mM NaCl, 20 mM citric acid, pH 6.2 (filter sterilized). For combination dosing, the drugs were mixed together so that only one injection would be required.
Chronic Diabetes Efficacy Studies: The db/db mice and age-matched lean controls were habituated in house 2 weeks before the start of the study. Animals were dosed every two days between 2-4 pm subcutaneously with a dose volume of 5 ml/kg over a period of 15 days. A three day vehicle lead in period was used before the start of drug with the first day being vehicle and the second two days being mock injections. Baseline fat mass and lean mass measurements were taken 3 days before the start of drug and on day 15 using a QMR instrument (Echo Medical Systems, Houston, Tex.) Body weight measurements were taken every Monday, Wednesday, and Friday starting four days before the first drug dose. […] Food hopper weights were measured every weekday starting 4-6 days before the first drug dose, allowing for the calculation of food intake. Animals that created excessive food spillage were removed prior to the beginning of the study. During the study, excess food was removed from the cage and added to the food hopper weights for increased accuracy. Eight animals (n=8) were used for the lean control group and eight animals (n=8) were used for all other treatment groups. A pair-fed control was included in which the daily food intake for the combination ED80 group was calculated and that amount of food was given to the pair-fed group to eat the next day. Sixteen days after the start of drug treatment, animals were fasted for at least 4 hours before collection of whole blood, plasma, and serum samples via terminal cardiac exsanguinations. The whole blood was used to determine the % HbAlc, the plasma was used for a gastrointestinal hormone panel, and the serum was used to access multiple chemistries. Finally, major organs and tissues were collected (heart, kidney, liver, lung, stomach, duodenum, colon, pancreas, brown adipose, white adipose, carcass) on day 16 and fixed in 10% neutral buffered formalin for macroscopic and microscopic histological examination.

[1] = tested on: diet induced obese (DIO) C57BL/6 mice; test: Chronic obesity efficacy study in diet induced obese (DIO) mice, peptide-AlbudAbs alone and combined; type: in vivo, mouse
Method: Male diet induced obese (DIO) C57BL/6 mice (Taconic, Hudson, N.Y.) and lean C57BL/6 mice (Taconic, Hudson, N.Y.) were used for all experiments. DIO C57BL/6 mice were group housed and fed a high fat diet (45% fat by kcal) by the vendor from the time of weaning. DIO mice (40-50 g body weight) and age-matched controls were single-housed and maintained at constant temperature (approximately 22° C.) with 12 hr light/dark cycle (lights on from 5:00 AM to 5:00 PM). Mice were given ad libitum access to food (Research Diets D12451, 45% fat for DIO; Lab Diet 5001, 13.5% fat for lean) and water. All animal protocols were approved by the institutional animal care and use committee at GlaxoSmithKline in Research Triangle Park, N.C. The peptide-AlbudAbs were either prepared fresh daily or were prepared once and frozen at −70 deg C. in aliquots. For combination dosing, the drugs were mixed together so that only one injection would be required.
Chronic Obesity Efficacy Studies: DIO C56BL/6 mice and age-matched lean controls were habituated in house for 6 weeks before the start of the study. Animals were dosed every two days between 2-4 pm subcutaneously with a dose volume of 5 ml/kg over a period of 15 days.
A three day vehicle lead in period was used before the start of drug with the first day being vehicle and the second two days being mock injections. Baseline fat mass and lean mass measurements were taken 3-4 days before the start of drug and on day 15 using a QMR instrument (Echo Medical Systems, Houston, Tex.) Body weight measurements were taken every Monday, Wednesday, and Friday starting four days before the first drug dose, with the first measurement being used to randomize the animals. Food hopper weights were measured every weekday starting 4-6 days before the first drug dose, allowing for the calculation of food intake. Animals that created excessive food spillage were removed prior to the beginning of the study. During the study, excess food was removed from the cage and added to the food hopper weights for increased accuracy. Eight to ten animals (n=8-10) were used for the lean control group and eight animals (n=8) were used for all other treatment groups. Sixteen days after the start of drug treatment, animals were fasted for at least 4 hours before collection of whole blood, plasma, and serum samples via terminal cardiac exsanguinations. The whole blood was used to determine the % HbAlc, the plasma was used for a gastrointestinal hormone panel, and the serum was used to access multiple clinical chemistry parameters. Finally, major organs and tissues were collected (heart, kidney, liver, lung, stomach, duodenum, colon, pancreas, brown adipose, white adipose, carcass) on day 16 and fixed in 10% neutral buffered formalin for macroscopic and microscopic histological examination.

GLP1R [2] = biological target: T1, GLP1R (Mus musculus, UniProt O35659); test: melanophore functional bioassay, mouse GLP1R; type: cell-based; settings: melanophores transfected with receptor
T1 construct: expressed in transfected cells; host or cells: melanophores
T1 sequence (O35659 22-463): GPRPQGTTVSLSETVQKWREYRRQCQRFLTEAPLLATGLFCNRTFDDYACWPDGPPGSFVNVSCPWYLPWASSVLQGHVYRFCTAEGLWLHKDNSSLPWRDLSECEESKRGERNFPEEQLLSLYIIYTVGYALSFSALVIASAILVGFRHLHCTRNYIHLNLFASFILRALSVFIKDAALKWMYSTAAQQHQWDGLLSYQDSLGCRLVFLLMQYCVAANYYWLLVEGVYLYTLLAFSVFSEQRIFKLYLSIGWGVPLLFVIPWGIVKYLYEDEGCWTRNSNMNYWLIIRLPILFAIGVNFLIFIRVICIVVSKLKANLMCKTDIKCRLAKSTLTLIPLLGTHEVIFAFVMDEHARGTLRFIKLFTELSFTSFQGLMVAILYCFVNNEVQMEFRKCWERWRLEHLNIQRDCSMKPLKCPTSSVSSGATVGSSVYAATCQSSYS
Method: (§1) The bioassay was performed essentially as described in Jayawickreme et al. (2005) Current Protocols in Pharmacology 12.9.1-12.9.16.

GLP1R [3] = biological target: T2, GLP1R (Homo sapiens, UniProt P43220); test: GLP-1 receptor binding assay (GLP-1R BA), CHO 6CRE GLP1R luciferase reporter cells; type: cell-based; set-up: expressed in transfected cells; host or cells: CHO K1 (CHO 6CRE GLP1R cells)
T2 sequence (P43220 24-463): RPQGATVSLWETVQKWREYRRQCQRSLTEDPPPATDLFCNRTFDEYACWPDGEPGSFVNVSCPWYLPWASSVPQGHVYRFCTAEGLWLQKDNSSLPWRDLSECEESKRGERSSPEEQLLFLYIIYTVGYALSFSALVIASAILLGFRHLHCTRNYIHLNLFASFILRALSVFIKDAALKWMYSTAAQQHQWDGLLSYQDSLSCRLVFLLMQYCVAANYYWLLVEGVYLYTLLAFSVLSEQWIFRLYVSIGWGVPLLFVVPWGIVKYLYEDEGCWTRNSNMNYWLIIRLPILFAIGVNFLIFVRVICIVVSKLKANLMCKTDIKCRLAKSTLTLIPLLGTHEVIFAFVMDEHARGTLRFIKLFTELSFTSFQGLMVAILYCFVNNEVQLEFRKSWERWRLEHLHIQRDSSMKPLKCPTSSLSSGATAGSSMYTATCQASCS
Method: Fusions were buffer exchanged into 100 mM […], 20 mM citrate pH 6.2. Meanwhile,CHO 6CRE GLP1R cells (CHO K1 cells (obtainable from the American Type Tissue Collection, ATCC) stably transfected with 6 cAMP response element driving a luciferase reporter gene and also with the human GLP-1 receptor) were seeded at 2×10^5cells/mL in suspension media. Suspension culture was maintained for 24 hours. Cells were then diluted into 15 mM HEPES buffer (obtainable from Sigma), containing 2 mM L glutamine (2.5×10^5 cells/ml) and dispensed into 384-well plates containing 10 ul/well of the compound to be assayed. After the addition of assay control, plates were returned to the incubator for 3 h at 37° C. and 5% CO2. […] Plates were placed in the reader (Viewlux, Perkin Elmer) and pre-incubated for 5 minutes prior to reading the […] and plotting of results. Compound was assayed at a range of concentrations in the presence and absence of 10 uM albumin, allowing a dose response curve to be fitted with and without the albumin.

GLP1R [4] = biological target: T2, GLP1R; test: melanophore functional bioassay, human GLP1R; type: cell-based; set-up: expressed in transfected cells; host or cells: melanophores; settings: melanophores transfected with receptor
Method: as §1

[5] = biological target: Mouse serum albumin (MSA) (Mus musculus, UniProt P07724); type: binding
Mouse serum albumin (MSA), sequence (P07724 25-608): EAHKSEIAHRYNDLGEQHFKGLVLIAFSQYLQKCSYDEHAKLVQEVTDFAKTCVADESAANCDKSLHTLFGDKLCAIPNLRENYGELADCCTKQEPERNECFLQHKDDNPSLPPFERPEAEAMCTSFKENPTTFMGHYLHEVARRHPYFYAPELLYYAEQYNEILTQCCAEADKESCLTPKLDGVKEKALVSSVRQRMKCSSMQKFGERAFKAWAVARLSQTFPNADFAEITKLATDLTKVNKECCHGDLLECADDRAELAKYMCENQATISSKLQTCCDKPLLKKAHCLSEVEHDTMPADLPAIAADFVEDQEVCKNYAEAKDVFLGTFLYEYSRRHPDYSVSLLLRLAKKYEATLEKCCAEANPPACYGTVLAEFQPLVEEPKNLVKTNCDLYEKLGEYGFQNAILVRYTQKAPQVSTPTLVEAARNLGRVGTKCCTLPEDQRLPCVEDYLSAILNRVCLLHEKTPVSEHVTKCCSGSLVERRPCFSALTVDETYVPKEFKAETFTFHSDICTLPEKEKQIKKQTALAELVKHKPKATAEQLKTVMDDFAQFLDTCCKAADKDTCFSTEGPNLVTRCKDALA
Method: (§2) The analysis was performed using a CM5 Biacore chip (carboxymethylated dextran matrix) that was coated with serum albumin. About 1000 resonance units (RUs) of each serum albumin to be tested (human, rat and mouse serum albumin) was immobilised in acetate buffer pH 5.5. Flow cell 1 of the Biocore AB was an uncoated, blocked negative control, flow cell 2 was coated with Human serum albumin (HSA) (815 RUs) flow cell 3 was coated with Rat serum albumin (RSA)(826RUs) and flow cell 4 was coated with Mouse serum albumin (MSA) (938 RUs). Each fusion molecule tested was expressed in mammalian tissue culture as described in the example above.
(§3) A range of concentrations of the fusion molecule were prepared (in the range 16 nM to 2 μM) by dilution into BIACORE HBS-EP buffer (0.01 M HEPES, pH7.4, 0.15 M NaCl, 3 mM EDTA, 0.005% surfactant P20) and flowed across the BIACORE chip.
(§4) Affinity (KD) was calculated from the BIACORE traces by fitting on-rate and off-rate curves to traces generated by concentrations of dAb in the region of the KD.

[6] = biological target: Human serum albumin (HSA) (Homo sapiens, UniProt P02768); type: binding
Method: as §2, §3, §4

Rat serum albumin (RSA) = Rat serum albumin (RSA) (Rattus norvegicus, UniProt P02770); type: binding
Rat serum albumin (RSA), sequence (P02770 25-608): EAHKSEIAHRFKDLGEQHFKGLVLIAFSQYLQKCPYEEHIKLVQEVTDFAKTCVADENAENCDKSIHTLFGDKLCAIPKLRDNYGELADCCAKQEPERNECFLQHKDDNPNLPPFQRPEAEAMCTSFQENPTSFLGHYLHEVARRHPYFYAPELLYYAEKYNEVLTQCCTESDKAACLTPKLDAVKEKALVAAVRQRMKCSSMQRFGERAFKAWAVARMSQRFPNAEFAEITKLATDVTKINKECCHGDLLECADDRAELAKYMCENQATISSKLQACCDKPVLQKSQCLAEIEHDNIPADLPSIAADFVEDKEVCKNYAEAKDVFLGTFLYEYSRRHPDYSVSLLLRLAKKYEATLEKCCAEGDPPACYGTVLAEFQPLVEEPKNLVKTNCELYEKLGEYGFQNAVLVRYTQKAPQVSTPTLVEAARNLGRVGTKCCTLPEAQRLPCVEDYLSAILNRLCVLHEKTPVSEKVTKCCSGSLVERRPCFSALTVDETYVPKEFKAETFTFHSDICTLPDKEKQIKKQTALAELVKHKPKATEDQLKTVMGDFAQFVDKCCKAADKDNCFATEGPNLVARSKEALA
Method: as §2, §3, §4

[7] = ED20 doses: PYY-AlbudAb 0.1 mg/kg, Exendin-4-AlbudAb 0.01 mg/kg, Combo ED20
[8] = ED80 Doses: PYY-Alb 1.0 mg/kg, Exn-Alb 0.1 mg/kg, Combo
[9] = day 16, ED80 doses: Exendin-4-AlbudAb 0.1 mg/kg, Combo ED80
[10] = read-out: GLP-1R BA (10 uM albumin) EC50 (pM) n = 2, presence of 10 uM albumin
[11] = read-out: GLP-1R BA EC50 (pM) n = 3, absence of albumin

Substance: DAT 0115: genetic fusion: exendin-4, (G4S)3 linker, 7h-14 AlbudAb, SEQ ID NO 2
- inhibition of weight gain (in words) (db/db C57BL/6J mice; PYY-AlbudAb 1.0 mg/kg, Exendin-4-AlbudAb 0.1 mg/kg, Combo ED80): effective at inhibiting weight gain
- decrease in glycosylated HbAlc (db/db C57BL/6J mice; [7]): no significant changes
- decrease in glycosylated HbAlc (db/db C57BL/6J mice; ED80 doses: PYY-AlbudAb 1.0 mg/kg, Exendin-4-AlbudAb 0.1 mg/kg, Combo ED80): 0.80%
- decrease in body weight from vehicle (db/db C57BL/6J mice; day 15, ED80 doses: PYY-AlbudAb 1.0 mg/kg, Exendin-4-AlbudAb 0.1 mg/kg, Combo ED80): 9.2%
- decrease in body weight relative to vehicle control (db/db C57BL/6J mice; day 15, PYY-AlbudAb 0.1 mg/kg, Exendin-4-AlbudAb 0.01 mg/kg): no significant effect
- plasma insulin levels (db/db C57BL/6J mice; [7]): trends towards increases
- plasma insulin levels (db/db C57BL/6J mice; ED80 doses: PYY-AlbudAb 1.0 mg/kg, Exendin-4-AlbudAb (dose not given), Combo ED80): 32036 pg/mL
- decrease in percent body fat (normalized to changes in vehicle controls) ([1]; 15 day treatment, ED20 doses: PYY-AlbudAb 0.1 mg/kg, Exendin-4-AlbudAb 0.01 mg/kg, Combo ED20): 0.6%
- decrease in percent body fat ([1]; 15 day treatment, ED80 doses: PYY-AlbudAb 1.0 mg/kg, Exendin-4-AlbudAb 0.1 mg/kg, Combo ED80): 6.8%
- Insulin % Change from DIO Vehicle ([1]; ED80 Doses: Exn-Alb 0.1 mg/kg, Combo): ↓-56%
- ALT % Change from DIO Vehicle [1, 8]: ↓-57%*
- AST % Change from DIO Vehicle [1, 8]: ↓-41%*
- Creatinine % Change from DIO Vehicle [1, 8]: ↓-17%*
- Glucose % Change from DIO Vehicle [1, 8]: ↓-27%*
- Total Bilirubin % Change from DIO Vehicle [1, 8]: ↑21%*
- Total Cholesterol % Change from DIO Vehicle [1, 8]: ↓-24%*
- Ghrelin levels ([1]; Exendin-4-AlbudAb monotherapy groups, level approximately equal to the combination groups): elevated
- decrease in body weight relative to vehicle ([1]; day 7, ED80 doses: PYY-AlbudAb 1.0 mg/kg, Exendin-4-AlbudAb 0.1 mg/kg, Combo ED80 = both mixed): 13.0%
- inhibition of feeding / food intake ([1]; day 14, ED80 doses: PYY-AlbudAb 1.0 mg/kg, Exendin-4-AlbudAb 0.1 mg/kg, Combo ED80): 0.8%
- decrease in body weight vs. vehicle ([1]; day 15, ED20 doses: PYY-AlbudAb 0.1 mg/kg, Exendin-4-AlbudAb 0.01 mg/kg, Combo ED20 = both mixed, s.c. every two days): 4.5%
- decrease in body weight from vehicle ([1]; day 15, ED80 doses: PYY-AlbudAb 1.0 mg/kg, Exendin-4-AlbudAb 0.1 mg/kg, Combo ED80 = both mixed): 16.8%
- microscopic change in brown adipose tissue (histopathology) ([1]; day 16, Combo ED20, Exendin-4-AlbudAb 0.01 mg/kg): decreased cytoplasmic lipid droplets
- microscopic change in brown adipose tissue (histopathology) ([1]; day 16, Combo ED80, PYY-AlbudAb 1.0 mg/kg, Exendin-4-AlbudAb 0.1 mg/kg, Exendin-4 0.1 mg/kg): decreased cytoplasmic lipid droplets
- Amylin levels in plasma [1, 9]: 163 pg/mL
- Leptin levels in plasma [1, 9]: 31.4 ng/mL
- fat mass lost ([1]; treatment period, ED20 doses: PYY-AlbudAb 0.1 mg/kg, Exendin-4-AlbudAb (dose not given), Combo ED20): 1.4 grams
- body fat lost ([1]; treatment period, ED80 doses: PYY-AlbudAb 1.0 mg/kg, Exendin-4-AlbudAb (dose not given), Combo ED80): 5.7 grams
- pEC50 Mouse GLP1R (GLP1R [2]): 11.06
- EC50 (GLP1R [3]; [10]): 38 pM
- EC50 (GLP1R [3]; [11]): 8 pM
- pEC50 Human GLP1R (GLP1R [4]): 11.36

Substance: DAT 0116: Exendin 4 DOM7h-14 fusion, SEQ ID NO 3
- EC50 (GLP1R [3]; [10]): 72 pM
- EC50 (GLP1R [3]; [11]): 12 pM

Substance: DAT 0117: Exendin 4, helical linker, DOM7h-14 fusion (Table 3), SEQ ID NO 4; Table 2 calls it 2xGLP-1 (7-37) A8G DOM7h-14 fusion
- EC50 (GLP1R [3]; [10]): 15 pM
- EC50 (GLP1R [3]; [11]): 4 pM
- Kd [5]: 130 nM
- Kd [6]: 150 nM
- Kd (Rat serum albumin (RSA)): 700 nM
